Results taken from patent US20130316948A1, “GROWTH HORMONE RECEPTOR DEFICIENCY CAUSES A MAJOR REDUCTION IN PRO-AGING SIGNALING, CANCER AND DIABETES IN HUMANS” (UNIVERSITY OF SOUTHERN CALIFORNIA, priority 2011, published 2013).
Each block holds one molecule with its values, some of them ahead of it.

Columns and labels:
[1] = system: pancreatic carcinoma cells; conditions: Mol Cancer Ther May 2009 8:1095-1105; cited from earlier work
[2] = system: HMECs; test: LDH cytotoxicity assay after H2O2 in epithelial cells incubated in serum; assay type: cell-based, human; conditions: 200 ng/ml IGF-I added to GHRD serum, 700 μM H2O2
[3] = Body weight of mice immunized with human Growth Hormone; assay type: in vivo, mouse; conditions: 20 male and 20 female mice, versus time
Text: FIG. 16A provides a plot of body weight of mice immunized with human Growth Hormone (huGH) (20 male and 20 female) versus time.
This figure provides a plot of body weight of mice immunized with human Growth Hormone (huGH) (20 male and 20 female) versus time.

[4] = Short term immunization with human GH before cyclophosphamide: body weight and complete blood count; assay type: in vivo, mouse; conditions: cyclophosphamide i.p., 300 mg/kg, CBC 7-days after CP
Description: FIG. 17A provides plots of the body weight of mice with short term immunization (STI) with human GH (half-filled arrowheads) after cyclophosphamide treatment (cyclophosphamide (CP) i.p., 300 mg/kg, indicated by the solid arrowhead) (Sham means treated with buffer and no chemo);
FIG. 17B provides a histogram of the complete blood count (CBC) 7-days after CP treatment (Data are presented as percentage of pre-chemo value);
FIG. 17A provides plots of the body weight of mice with short term immunization (STI) with human GH (half-filled arrowheads) after cyclophosphamide treatment (cyclophosphamide (CP) i.p., 300 mg/kg, indicated by solid arrowheads). FIG. 17B provides a histogram of the complete blood count (CBC) 7-days after CP treatment (Data are presented as percentage of pre-chemo value).

[5] = target: human GH (Homo sapiens, UniProt P01241); test: Slot blot of anti-huGH activity in serum from mice immunized with huGH; assay type: in vivo, mouse; conditions: slot blot against immobilized human GH
[6] = system: primary glial cells; test: 24 hour LDH release from primary glial cells under oxidative damage; assay type: cell-based
Description: FIG. 20 provides a plot of the 24 hour lactate dehydrogenase (LDH) release from the treatment of primary glial cells with the IGF-I inhibitor insulin-like growth factor-binding protein 1 (IGFBP1) and with insulin-like growth factor-binding protein 2 (IGFBP2). […] IGFBP1 is a strong IGF-I inhibtor. Other IGFBPs can even increase IGF-I signaling.

Sequence of human GH (P01241 27-217): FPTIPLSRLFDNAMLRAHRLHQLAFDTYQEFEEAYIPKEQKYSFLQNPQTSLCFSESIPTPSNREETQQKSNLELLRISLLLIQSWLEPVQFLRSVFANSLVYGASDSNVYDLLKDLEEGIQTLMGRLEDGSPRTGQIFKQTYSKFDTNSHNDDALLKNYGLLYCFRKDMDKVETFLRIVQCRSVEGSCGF

Molecule: AMG 479: fully human anti-insulin-like growth factor receptor type I monoclonal antibody
Effect on pancreatic carcinoma cells [1]: inhibits the growth and survival of pancreatic carcinoma cells

Molecule: IGF-I: insulin like growth factor-I, added at 200 ng/ml to GHRD serum
Effect on the higher cytotoxicity seen in GHRD serum [2]: completely reversed

Immunized mice whose serum showed strong anti-huGH activity [5]: 34 out of 40
Molecule: huGH: human Growth Hormone used to immunize mice to generate inhibitory antibodies against GH
Body weight of immunized mice [3]: Lower body weight | Effect of immunization on chemotherapy side effects (body weight, CBC) [4]: protective effect against chemotherapy side effects

B1: IGFBP1: IGF-I inhibitor insulin-like growth factor-binding protein 1 (protein, UniProt P08833 26-259, looked up)
Insulin-like growth …: APWQCAPCSAEKLALCPPVSASCSEVTRSAGCGCCPMCALPLGAACGVATARCARGLSCRALPGEQQPLHALTRGQGACVQESDASAPHAAEAGSPESPESTEITEEELLDNFHLMAPSEEDHSILWDAISTYDGSKALHVTNIKKWKEPCRIELYRVVESLAKAQETSGEEISKFYLPNCNKNGFYHSRQCETSMDGEAGLCWCVYPWNGKRIPGSPEIRGDPNCQIYFNVQN
Effect on oxidative damage (LDH release) [6]: protects them against oxidative damage
